PMC7377239, “Cardiovascular Effects of Polychlorinated Biphenyls and Their Major Metabolites” (Environmental Health Perspectives, 2020)
Where two headings read alike, the source gives them in different places.

Experiments:
[1] = tested on: HUVECs; experiment: High-content imaging cytotoxicity in HUVECs, 24 h; format: cell-based, human; details: Homo sapiens, HUVEC, 24 h, HUVECs; for viability at 0.01 µM / activity at 0.01 µM / viability at 0.1 µM / activity at 0.1 µM / viability at 1 µM / activity at 1 µM / viability at 10 µM / activity at 10 µM / viability at 100 µM / activity at 100 µM: 0.00 µM = 100.00; for viability at 0.1 µM / activity at 0.1 µM: 0.10 µM; for minimal effective concentration: top concentration 100.00 µM
Method: Similar to the cultivation of iCell®-endothelial cells, HUVEC maintenance and experimentation are detailed elsewhere ([Iwata et al. 2017]). Briefly, HUVECs were thawed, seeded, and grown in T75 tissue culture flasks in Medium 199 with EGM™-2 BulletKits™. HUVECs were incubated at regular cell culture conditions, 37°C and 5% CO2 , and passaged every 2–3 d using TrypLE™ Express. To ensure adequate endothelial function, experiments were performed with cells between passages 1 and 5.
Cytotoxicity was assessed in parallel experiments. For iCell®-endothelial cells, 384-well plates were coated with a 30μg/mL fibronectin solution ( 10μL/well ) and incubated for 2 h at RT. iCell®-endothelial cells were dissociated with TrypLE™ Express and prepared into a solution to achieve 750 cells per well and 50μL of total volume. The fibronectin solution was removed from the 384-well plate, and cells were plated. For HUVECs, similar dissociation and the same cell density were used for plating with the exclusion of the fibronectin solution. Cells were incubated at 37°C and 5% CO2 until a monolayer was formed, typically 3–5 d. 2×PCB plates were created with the requisite maintenance medium. Before treatment, the medium in the wells was exchanged to 25μL/well of fresh maintenance medium. 2×PCB chemical solutions ( […] ) were added. After 24 h incubation at 37°C and 5% CO2 , cells were stained with Hoechst 33342, MitoTracker™ Orange, and calcein AM for 20 min before replacing the staining media with FluoroBright DMEM. Cell culture plates were imaged using the ImageXpress® Micro Confocal high-content imaging system (Molecular Devices). Images were acquired at 10× magnification with DAPI, TRITC, or FITC filter (Hoechst 33342, MitoTracker™, or calcein AM, respectively). The multiwavelength cell scoring applications module in MetaXpress™ (Molecular Devices) was used to analyze the images.
(§1) Phenotypic responses were quantitatively assessed using concentration–response modeling as detailed elsewhere ([Sirenko et al. 2017]). Briefly, phenotypic readouts were normalized to vehicle controls and fit to a four-parameter logistic model in R studio software (version 3.1.1; R Development Core Team). Following EPA guidance on dose–response modeling, a cutoff of one standard deviation across means of vehicle control (i.e., 0.5% vol/vol DMSO in cell culture media) wells was applied to determine the point-of-departure (POD) values ([U.S. EPA 2012]). In the absence of a concentration–response, the highest tested concentration (i.e., 100μM ) was assigned as “no observable adverse effect level.” The concentration–response assessment R script, as well as templates for vehicle and concentration–response data, are available as a supplement to Sirenko et al. ([2017]). The ability of physicochemical properties to predict differences in PODs were evaluated by multiregression and mixed-effects modeling using R.

[2] = tested on: iCell cardiomyocytes (human iPSC-derived cardiomyocytes); experiment: High-content imaging of cytotoxicity and mitochondrial integrity in iPSC-CMs; format: cell-based; details: Homo sapiens; for viability at 0.01 µM / activity at 0.01 µM / viability at 0.1 µM / activity at 0.1 µM / viability at 1 µM / activity at 1 µM / viability at 10 µM / activity at 10 µM / viability at 100 µM / activity at 100 µM: Cardiomyocyte, 0.00 µM = 100.00; for viability at 0.1 µM / activity at 0.1 µM: 0.10 µM; for minimal effective concentration: iPSC-CM
Method: Details on cardiomyocyte cell culture are described in detail elsewhere ([Grimm et al. 2015b]; [Sirenko et al. 2013a]). Briefly, tissue-culture treated 384 well plates were gelatinized with 25μL per well of 0.1% (w/v) gelatin in water for 2 h at 37°C and 5% CO2 . Individual vials of cells were thawed for 4 min in a water bath maintained at 37°C. Thawed cells were resuspended in 10ml plating medium containing 1:500 (vol/vol) penicillin/streptomycin solution at room temperature (RT). Live cell counts for each cell suspension were determined by trypan blue staining and cells were further diluted to provide final cell densities of 2×10^5 viable cells/ml. Thus, 5,000 cells suspended in 25μL media were transferred per well after the gelatin solution had been discarded. Cell culture plates were rested for 30 min at RT before they were incubated for 48 h at 37°C and 5% CO2 . Then, a media exchange with 30μL of fresh maintenance medium containing 1:500 (vol/vol) penicillin/streptomycin solution was performed, and cell media were subsequently changed every 48 h for 12 d. On the experiment day, the medium was completely exchanged with either 25μL (for Ca^2+ flux assay) or 40μL (for imaging) of fresh medium.
Cytotoxicity and effects on mitochondrial integrity of various PCBs and PCB metabolites in induced pluripotent stem cell-CMs (iPSC-CMs) were assessed using high-content cellular imaging in ImageXpress® Micro Confocal (Molecular Devices) as detailed in ([Grimm et al. 2015b]). Cells in 40μL maintenance media were treated with 10μL of 5× chemical solutions to provide test chemicals at final assay concentrations ranging from 0.01 to 100μM . […] Next, sample wells were treated with 50μL equilibrated 2× concentrated staining solution (maintenance medium containing Hoechst 33342, 4μg/mL and MitoTracker™ Orange, 0.4μM ). Microplates were then incubated for 15 min at 37°C and 5% CO2 before cells were washed twice with 30μL maintenance medium. All media were aspirated and discarded, and cells were fixed with […] of a 3.7% formaldehyde solution for 15 min at 37°C and 5% […] . Fixed cells were washed 3× with 25μL PBS before image acquisition using the DAPI (Hoechst 33342) and Cy3 (MitoTracker™ Orange) filters at 10× magnification on the ImageXpress® Micro Confocal high-content confocal microscope (Molecular Devices). The multiwavelength cell scoring applications module in MetaXpress® was used to analyze acquired images.
as §1

[3] = 24 hr, read-out: huvec.cyto.24hr
[4] = 24 hr, read-out: huvec.mito.24hr
[5] = 24 hr, read-out: huvec.mitoint.24hr
[6] = 24 hr, read-out: huvec.nma.24hr
[7] = 24 hrs, read-out: huvec.tc.24hrs

Structure (SMILES): Oc1ccccc1-c1ccc(Cl)cc1 [2'-OH PCB3]
- viability at 0.01 µM [1, 3]: 88.2%
- activity at 0.01 µM [1, 4]: 87.7%
- activity at 0.01 µM [1, 5]: 94.4%
- activity at 0.01 µM [1, 6]: 93.4%
- viability at 0.1 µM [1, 3]: 84.3%
- activity at 0.1 µM [1, 4]: 84%
- activity at 0.1 µM [1, 5]: 125%
- activity at 0.1 µM [1, 6]: 97.1%
- viability at 1 µM [1, 3]: 93%
- activity at 1 µM [1, 4]: 92.5%
- activity at 1 µM [1, 5]: 107%
- activity at 1 µM [1, 6]: 95.6%
- viability at 10 µM [1, 3]: 90.2%
- activity at 10 µM [1, 4]: 88.2%
- activity at 10 µM [1, 5]: 104%
- activity at 10 µM [1, 6]: 92.6%
- viability at 100 µM [1, 3]: 47.5%
- activity at 100 µM [1, 4]: 38.4%
- activity at 100 µM [1, 5]: 9.54%
- activity at 100 µM [1, 6]: 65%
- minimal effective concentration ([1]; 24 hr, read-out: huvec.cyto.24hr POD): 5.19 µM
- minimal effective concentration ([1]; 24 hr, read-out: huvec.mito.24hr POD): 4.06 µM
- minimal effective concentration ([1]; 24 hr, read-out: huvec.mitoint.24hr POD): 34.4 µM
- minimal effective concentration ([1]; 24 hr, read-out: huvec.nma.24hr POD): 1.6 µM
- viability at 0.01 µM [1, 7]: 88.2%
- viability at 0.1 µM [1, 7]: 84.3%
- viability at 1 µM [1, 7]: 93.2%
- viability at 10 µM [1, 7]: 90.3%
- viability at 100 µM [1, 7]: 84.1%
- minimal effective concentration ([1]; 24 hrs, read-out: huvec.tc.24hrs POD): 5.19 µM
- viability at 0.01 µM ([2]; 1.5 h, read-out: cm.cam.90min): 104%
- activity at 0.01 µM ([2]; 1.5 h, read-out: cm.mii.90min): 111%
- activity at 0.01 µM ([2]; 1.5 h, read-out: cm.mito.90min): 104%
- viability at 0.01 µM ([2]; 1.5 h, read-out: cm.tc.90min): 104%
- viability at 0.1 µM ([2]; 1.5 h, read-out: cm.cam.90min): 95.6%
- activity at 0.1 µM ([2]; 1.5 h, read-out: cm.mii.90min): 113%
- activity at 0.1 µM ([2]; 1.5 h, read-out: cm.mito.90min): 95.6%
- viability at 0.1 µM ([2]; 1.5 h, read-out: cm.tc.90min): 95.6%
- viability at 1 µM ([2]; 1.5 h, read-out: cm.cam.90min): 101%
- activity at 1 µM ([2]; 1.5 h, read-out: cm.mii.90min): 101%
- activity at 1 µM ([2]; 1.5 h, read-out: cm.mito.90min): 101%
- viability at 1 µM ([2]; 1.5 h, read-out: cm.tc.90min): 101%
- viability at 10 µM ([2]; 1.5 h, read-out: cm.cam.90min): 102%
- activity at 10 µM ([2]; 1.5 h, read-out: cm.mii.90min): 92.5%
- activity at 10 µM ([2]; 1.5 h, read-out: cm.mito.90min): 102%
- viability at 10 µM ([2]; 1.5 h, read-out: cm.tc.90min): 102%
- viability at 100 µM ([2]; 1.5 h, read-out: cm.cam.90min): 0%
- activity at 100 µM ([2]; 1.5 h, read-out: cm.mii.90min): 32.7%
- activity at 100 µM ([2]; 1.5 h, read-out: cm.mito.90min): 0.07%
- viability at 100 µM ([2]; 1.5 h, read-out: cm.tc.90min): 0.07%
- viability at 0.01 µM ([2]; 24 h, read-out: cm.cam.24hrs): 95.1%
- activity at 0.01 µM ([2]; 24 h, read-out: cm.mii.24hrs): 98.5%
- activity at 0.01 µM ([2]; 24 h, read-out: cm.mito.24hrs): 92.6%
- viability at 0.01 µM ([2]; 24 h, read-out: cm.tc.24hrs): 94.5%
- viability at 0.1 µM ([2]; 24 h, read-out: cm.cam.24hrs): 94.5%
- activity at 0.1 µM ([2]; 24 h, read-out: cm.mii.24hrs): 96%
- activity at 0.1 µM ([2]; 24 h, read-out: cm.mito.24hrs): 91.2%
- viability at 0.1 µM ([2]; 24 h, read-out: cm.tc.24hrs): 94.3%
- viability at 1 µM ([2]; 24 h, read-out: cm.cam.24hrs): 99.7%
- activity at 1 µM ([2]; 24 h, read-out: cm.mii.24hrs): 98.3%
- activity at 1 µM ([2]; 24 h, read-out: cm.mito.24hrs): 96.7%
- viability at 1 µM ([2]; 24 h, read-out: cm.tc.24hrs): 99.8%
- viability at 10 µM ([2]; 24 h, read-out: cm.cam.24hrs): 103%
- activity at 10 µM ([2]; 24 h, read-out: cm.mii.24hrs): 74.7%
- activity at 10 µM ([2]; 24 h, read-out: cm.mito.24hrs): 104%
- viability at 10 µM ([2]; 24 h, read-out: cm.tc.24hrs): 103%
- viability at 100 µM ([2]; 24 h, read-out: cm.cam.24hrs): 0%
- activity at 100 µM ([2]; 24 h, read-out: cm.mii.24hrs): 0%
- activity at 100 µM ([2]; 24 h, read-out: cm.mito.24hrs): 0%
- viability at 100 µM ([2]; 24 h, read-out: cm.tc.24hrs): 0%
- minimal effective concentration ([2]; 1.5 h, read-out: cm.cam.90min POD): 32.8 µM
- minimal effective concentration ([2]; 1.5 h, read-out: cm.mii.90min POD): 9.15 µM
- minimal effective concentration ([2]; 1.5 h, read-out: cm.mito.90min POD): 41.4 µM
- minimal effective concentration ([2]; 1.5 h, read-out: cm.tc.90min POD): 34.5 µM
- minimal effective concentration ([2]; 24 h, read-out: cm.cam.24hrs POD): 40.4 µM
- minimal effective concentration ([2]; 24 h, read-out: cm.mii.24hrs POD): 6.56 µM
- minimal effective concentration ([2]; 24 h, read-out: cm.mito.24hrs POD): 29.8 µM
- minimal effective concentration ([2]; 24 h, read-out: cm.tc.24hrs POD): 35.9 µM
